Results reported in US12178830B2, “Compositions and methods for adoptive cell therapy for cancer” (MEMORIAL SLOAN KETTERING CANCER CENTER, priority 2017, dated 2024).

Legend:
[1] = tested on: myeloid leukemia cell line SET2; experiment: CellTitre Glo in vitro cytotoxicity, SET2; format: cell-based
HEK293T (kidney) = experiment: CellTitre Glo in vitro cytotoxicity, HEK293T; format: cell-based, human
[2] = tested on: SKOV-3 human ovarian cancer cell line; experiment: Cell viability, Skov-3; format: cell-based
SET2 cells = experiment: SET2 viability with prodrug plus recombinant enzyme or enzyme-containing supernatant; format: cell-based; details: supernatant from CPG2-secreting HEK293t cells; control media did not
Method: Recombinant CPG2 protein was initially synthesized, purified (FIGS. 18A and 18B), and incubated with increasing concentrations of prodrug in a glutamate release assay (FIG. 17C). Mass spectrometry was used to determine that the glutamate moiety was released from all of the glutamate prodrugs. The in vitro cytotoxicity of the prodrugs (FIG. 17B) were tested against the myeloid leukemia cell line SET2 using a CellTitre Glo® assay (Promega, Madison, WI).
SET2 cells were exposed to increasing concentrations of AMS (square) or glut-AMS with media alone (− control, triangle) or supernatant from CPG2-secreting HEK293t cells (circle). Cell viability was measured by CellTitre-Glo® luminescence assay.
Thus, antigen-dependent expansion of SEAKER T cells results in increased output of enzyme into the extracellular milieu.
To determine to respective enzyme output of the Beta-lactamase constructs relative to the previous CPG2 constructs, a quantitative sandwich ELISA was used to determine the concentration (ng/mL) of purified recombinant CPG2, and a quantitative nitrocefin assay was used to determine the concentration (ng/mL) of purified recombinant Beta-lactamase (FIG. 25A). Cell viability was measured by CellTitre-Glo® luminescence in the presence of prodrug (glut-AMS or ceph-AMS) and varying concentrations of purified recombinant CPG2 or Beta-lactamase (FIG. 25B).

Jurkat (T cell) = experiment: CellTitre Glo in vitro cytotoxicity, Jurkat; format: cell-based, human
Raji = experiment: Cell viability, Raji; format: cell-based, human
[3] = tested on: HEK293T cells expressing CPG2; experiment: HEK293T cells expressing CPG2 variants exposed to P-AMS; format: cell-based, human
Method: (§1) The in vitro cytotoxicity of AMS (structure 1c) and its prodrug variant (structure 1a) was tested against a variety of cell lines using a CellTitre Glo® assay (Promega, Madison, WI). […] Moreover, co-treatment with the prodrug and supernatant from CPG2-transfected HEK293T cells (see Example 3) led to cytotoxicity approaching that of the free drug (50 nM), consistent with CPG2-mediated cleavage of the prodrug to release the active parent drug. […] In contrast, AMS prodrug 1a was not activated by HEK293T cells expressing CPG intracellularly, which likely attributed to poor cell-penetrance of the prodrug due to the free bis-anionic gluatamate moiety.
Expression of CPG2 without a signal peptide (CPG2nosigp) was employed as a control. HEK293t cells stably transfected with CPG2 variants were exposed to P-AMS ([…]) for 48 hours and analyzed by bright field microscopy (FIG. 9A). Cells were exposed to varying concentrations of P-AMS and cell viability was analyzed at 48 hr post treatment (FIG. 9B).

[4] = tested on: human epithelial CACO-2 cells; experiment: Cell permeability in CACO-2 cells; format: in vitro ADME
Jurkat T cells = experiment: Jurkat viability with prodrug plus supernatant from CPG2-secreting HEK293T cells; format: cell-based, human; details: increasing prodrug, 48 hours, supernatant from CPG2-secreting HEK293T cells
Method: as §1
Jurkat T cells were exposed to increasing concentrations of AMS (circle) or Pro-AMS with media alone (triangle) or supernatant from CPG2-secreting HEK293T cells (square). Cell viability was measured at 48 hours by CellTitre-Glo® luminescence assay.
Jurkat T cells were exposed to increasing concentrations of ZD2767P with media alone (triangle) or supernatant from CPG2-secreting HEK293T cells (square). Cell viability was measured at 48 hours by CellTitre-Glo® luminescence assay.

Nalm6 = experiment: Cell viability, Nalm6; format: cell-based
primary T-cells = experiment: CellTitre Glo in vitro cytotoxicity, primary T cells; format: cell-based, human
recombinant CPG2 = target: T1, recombinant CPG2 (Pseudomonas sp., UniProt P06621, N222Q/N264Q/N272Q); experiment: Glutamate release assay (Amplex Red) with recombinant CPG2; format: biochemical; details: high concentrations (~10 μM), 37° C.
T1 construct: 6xHis (pET151 Directional TOPO leader) (N); made in house; host or cells: E. coli BL21 star
Method: FIG. 4 provides exemplary data showing activation of P-AMS (see FIG. 2) by recombinant CPG2 expressed and purified from E. coli. (A) Human Jurkat T cells were incubated with or without P-AMS in the presence of increasing concentration of purified CPG2. Cell viability was measured at 48 hours by CellTitre-Glo luminescence. (B) Recombinant CPG2 was exposed to various concentrations of glutamated AMS prodrug. Following incubation at 37° C. (0.5, 1, 2, and 4 hr.), the reaction was combined with Amplex® Red (converts free glutamate to a fluorescent species) and fluorescent emission was analyzed using a fluorescence multiwell plate scanner.
The CPG2-pET151 vector was transformed into BL21 star E. coli cells and induced with IPTG. Bacteria were homogenized in a French Press and purified by affinity chromatography over Ni++ beads using standard protocols. Imidazole was exchanged via PBS dialysis and protein was purified via desalting spin columns. The expressed and purified CPG2 was assayed to confirm that the active enzyme was a potent converter of glutamated prodrugs. […] Pro-AMS was activated by recombinant CPG2 in vitro. Human Jurkat T cells were incubated with or without P-AMS in the presence of increasing concentration of purified CPG2. Cell viability of the Jurkat cells was measured at 48 hours by CellTitre-Glo® luminescence. […]

[5] = tested on: panel of cancer cell lines and primary cell lines; experiment: In vitro cytotoxicity of drug/prodrug pairs against a panel of cell lines; format: cell-based
[6] = mouse, in vivo
[7] = target: T2, endogenous glutamate carboxypeptidase expressed in human prostate cells (Homo sapiens, UniProt Q04609); experiment: Cell Titer-Glo viability of LNCap cells with AMS-glut prodrug (specificity for CPG2); format: cell-based
T2 construct: the endogenous glutamate carboxypeptidase expressed in human prostate cells; endogenous in cells; host or cells: LNCap cells
Description: This prodrug/drug combination was chosen for further development of the SEAKER systems.

With `NS(=O)(=O)OC[C@H]1O[C@@H](n2cnc3c(NC(=O)N[C@@H](CCC(=O)O)C(=O)O)ncnc32)[C@H](O)[C@@H]1O` [P-AMS, ((9-((2R,3R,4S,5R)-3,4-dihydroxy-5-((sulfamoyloxy)methyl)tetrahydrofuran-2-yl)-9H-purin-6-yl)carbamoyl)-L-glutamic acid] the IC50 ([1]; Homo sapiens, SET-2, read-out: IC50 (cell selectivity data)) was greater than 3000 nM, the “Selective Index” value ([1]; Set2, prodrug vs AMS) was greater than 87.2 and the “Selective Index” value (HEK293T (kidney); HEK293t, prodrug vs AMS) was greater than 7.5. The IC50 (HEK293T (kidney); Homo sapiens, HEK-293T, read-out: IC50 (cell selectivity data)) was greater than 5000 nM, the IC50 ([2]; Homo sapiens, SK-OV-3, read-out: IC50 (cell selectivity data)) was greater than 5000 nM and the “Selective Index” value ([2]; Skov-3, prodrug vs AMS) was greater than 14.3. The “SET2 cell viability with prodrug and CPG2 supernatant” value (SET2 cells) was “significant decrease in cell viability”, the IC50 (Jurkat (T cell); Homo sapiens, Jurkat, read-out: IC50 (cell selectivity data)) was greater than 1250 nM and the “Selective Index” value (Jurkat (T cell); Jurkat (T cell), prodrug vs AMS) was greater than 162.3. The IC50 (Raji; Homo sapiens, read-out: IC50 (cell selectivity data)) was greater than 3000 nM, the “Selective Index” value (Raji; prodrug vs AMS) was greater than 170.5 and the “activation by cells expressing CPG intracellularly” value ([3]; HEK293T cells expressing CPG intracellularly) was “not activated”. For the same compound, the “cell death of HEK293T cells stably expressing secreted or transmembrane CPG2” value ([3]; P-AMS, 48 hr, CPG2nosigp control did not) was “significant cell death”, the cell permeability [4] was “no cell permeability” and the “cell viability with prodrug and CPG2 supernatant” value (Jurkat T cells) was “significant decrease in cell viability”. The IC50 (Nalm6; Homo sapiens, NALM-6, read-out: IC50 (cell selectivity data)) was greater than 3000 nM, the “Selective Index” value (Nalm6; Nalm6, prodrug vs AMS) was greater than 81.3 and the IC50 (primary T-cells; Homo sapiens, T-cell, read-out: IC50 (cell selectivity data)) was greater than 3000 nM. For the same compound, the “Selective Index” value (primary T-cells; Human T cell, prodrug vs AMS) was greater than 13.2, the “time in which the majority of the prodrug is converted” value (recombinant CPG2) was no more than 1 h and the selective indices ([5]; all cell types tested) was greater than 100. The IC50 ([5]; prodrug alone, cell lines tested) was greater than 1000 nM, the SI selectivity index ([5]; prodrug vs free drug, up to) was greater than 56 and the toxicity [6] was “non-toxic”. For the same compound, the “stability to endogenous glutamate carboxypeptidase” value [7] was “remained stable”.
